Measurements reported in publication PMC3951225, “Cytotoxic Sesquiterpene Lactones from Kauna lasiophthalma Griseb” (Scientia Pharmaceutica, 2014).
“Also recorded” adds a separate entry of the source.

How the values were obtained:
Type in all cases: cell-based, human
HCC1937 cells = assay: MTT cytotoxicity dose-response assay, HCC1937; settings: 72 h treatment, a/b/c = one, two, three or more dose-response curves
Description: (§1) The L56Br-C1 cell line was established at the Department of Oncology, Clinical Sciences, Lund University, Sweden. The JIMT-1 cell line was purchased from the German Collection of Microorganisms and Cell Cultures (Braunschweig, Germany) and the MCF-7, SK-BR-3, HCC1937, and MCF-10A cells were obtained from the American Tissue Type Culture Collection (Manassas, VA, USA). The cell lines were cultured as monolayers at 37°C in a humidified incubator with 5% CO2 in air. The MCF-10A cells have a population doubling time of 15 hours, the JIMT-1 cells 24 hours, and the other four cell lines around 35 hours.
(§2) The L56Br-C1, MCF-7, SK-BR-3, and HCC1937 cells were cultured as described by Holst et al. JIMT-1 cells were cultured in DMEM/Ham’s F12 medium supplemented with 10% fetal calf serum, non-essential amino acids (1 mM), insulin (10 μg/ml), penicillin (100 U/ml), and streptomycin (100 μg/ml). MCF-10A cells were maintained in RPMI 1640 medium supplemented with 10% heat-inactivated fetal calf serum, non-essential amino acids (1 mM), insulin (10 μg/ml), epidermal growth factor (20 ng/ml), cholera toxin (50 ng/ml), hydrocortisone (250 ng/ml), penicillin (100 U/ml), and streptomycin (100 μg/ml). The MCF-10A and JIMT-1 cell lines were sub-cultured twice a week, while the L56Br-C1, MCF-7, SK-BR-3, and HCC1937 cells were sub-cultured once a week with an additional change of growth medium once a week.
(§3) Stock solutions ([…]) of the compounds were made in 100% DMSO. These were further diluted in PBS to obtain the correct concentrations used for the MTT assay. Appropriate DMSO controls were used. In general, the highest DMSO concentration was 0.1%, however, when treating with 100 μM and starting from a […] in 100% DMSO, a final concentration of 1% DMSO was used as the control.
(§4) The MTT assay was performed as previously described. Briefly, the cells were trypsinized and counted in a hemocytometer. Aliquots of 180 μl cell suspensions containing 3000 (MCF-10A) and 6000 (MCF-7, SK-BR-3, JIMT-1, L56Br-C1, and HCC1937) cells were seeded in the wells of 96-well plates. Compounds were added 24 hours after seeding to allow the attachment of cells. A concentration range between 0.1 to 100 μM was used in the MTT assays and appropriate DMSO controls. At 72 h of drug treatment, 20 μl of MTT solution (5 mg/ml MTT in PBS) was added to each well and the 96-well plates were returned to the CO2 incubator for 1 hour. The MTT-containing medium was removed. The blue formazan product formed by the reduction in live attached cells was dissolved by adding 100 μl of 100% DMSO per well after removal of the MTT-containing medium. The plates were swirled gently at room temperature for 10 minutes to dissolve the precipitate. Absorbance was monitored at 540 nm in a Labsystems iEMS Reader MF (Labsystems Oy, Helsinki, Finland) using the DeltaSoft II v.4.14 software (Biometallics Inc., Princeton, NJ, USA). Dose-response curves were drawn based on the % of the control in Excel. The IC50 was deduced from the curves.

JIMT-1 cells = assay: MTT cytotoxicity dose-response assay, JIMT-1; settings: 72 h treatment, a/b/c = one, two, three or more dose-response curves
Description: as §1, §2, §3, §4

L56Br-C1 cells = assay: MTT cytotoxicity dose-response assay, L56Br-C1; settings: 72 h treatment, a/b/c = one, two, three or more dose-response curves
Description: as §1, §2, §3, §4

MCF-7 cells = assay: MTT cytotoxicity dose-response assay, MCF-7; settings: 72 h treatment, a/b/c = one, two, three or more dose-response curves
Description: as §1, §2, §3, §4

SK-BR-3 cells = assay: MTT cytotoxicity dose-response assay, SK-BR-3; settings: 72 h treatment, a/b/c = one, two, three or more dose-response curves
Description: as §1, §2, §3, §4

[1] = MTT cytotoxicity dose-response assay, MCF-10A (non-cancerous); settings: human, MCF-10A cells (normal-like breast epithelial cell line), 72 h treatment, a/b/c = one, two, three or more dose-response curves
Description: as §1, §2, §3, §4

[2] = tested on: breast cancer cell lines HCC1937, JIMT-1, L56Br-C1, MCF-7, and SK-BR-3; assay: MTT assay, panel of five breast cancer cell lines; settings: for Anticancer activity / relative potency in words: breast cell lines, comparison among the tested compounds
Description: The anticancer activities of sesquiterpenes 1, 3, 6–9, 11, 12, 14, and 16 were assessed in five breast-cancer cell lines, HCC1937, JIMT-1, L56Br-C1, MCF-7, and SK-BR-3, and compared with the cytotoxicity in the breast-derived non-cancerous cell line MCF-10A using the MTT colorimetric assay. […] 16 is an unsaturated ester and differs in that respect from the other compounds, but the lower activity of 3 compared to the similar compounds was unexpected. Costunolide (1) differs from the eudesmane sesquiterpenes by having the unsaturated lactone fused with a macrocyclic system instead of a cyclohexane ring, and the tension of the lactone ring is likely to be lower in 1. […] The difference in the activities of 7 and 8 may depend on the higher lipophilicity of 8, facilitating its absorption into the cells. In 11 and 14, the presence of a second Michael acceptor function may influence the activity. […] MCF-7 has a normal wild type p53 gene, which the MCF-10A cells also have, while the others have a mutated p53.
as §3, §4

MCF-10A cells = assay: MTT cytotoxicity dose-response assay, MCF-10A (non-cancerous); settings: normal-like breast epithelial cell line, 72 h treatment, a/b/c = one, two, three or more dose-response curves
Description: as §1, §2, §3, §4

| Compound | IC50 (HCC1937 cells; Homo sapiens, HCC1937, 72 h) | IC50 (JIMT-1 cells) | IC50 (JIMT-1 cells; Homo sapiens, JIMT-1, 72 h) | IC50 (L56Br-C1 cells; Homo sapiens, 72 h) | IC50 (MCF-7 cells; Homo sapiens, MCF7, 72 h) | IC50 (SK-BR-3 cells; Homo sapiens, SK-BR-3, 72 h) | IC50 at 72 h [1] | Anticancer activity / relative potency in words [2] | IC50 (HCC1937 cells) | IC50 (L56Br-C1 cells) | IC50 (MCF-7 cells) | IC50 (MCF-10A cells) | IC50 ([2]; Homo sapiens, five breast cancer cell lines, read-out: IC50 values, range over the cancer cell lines) | IC50 (SK-BR-3 cells) |
| --- | --- | --- | --- | --- | --- | --- | --- | --- | --- | --- | --- | --- | --- | --- |
| C=C1CC[C@@H](O)[C@]2(C)CC[C@H]3C(=C)C(=O)O[C@@H]3[C@@H]12 [Compound 6, reynosin] | 10 µM | 12 µM | 8.5 µM | 11 µM | 16.4 ± 7.1 µM | 5.2 ± 1.6 µM | 17 µM | – | – | – | – | – | – | – |
| C=C1C(=O)O[C@@H]2[C@@H]3[C@@](C)(CC[C@@H]12)[C@@H](OC(C)=O)CC[C@]3(C)O (relative stereo) [Compound 3, (+)-(3aS*,5aR*,6S*,9S*,9aS*,9bS*)-9-Hydroxy-5a,9-dimethyl-3-methylidene-2-oxododeca-hydronaphtho[1,2-b]furan-6-yl acetate] | 23 µM | – | 18 µM | 9.3 µM | 27 µM | 10.1 µM | 38 µM | lowest activity | – | – | – | – | – | – |
| C=C1C(=O)O[C@@H]2[C@H]3C(C)=CC(=O)C3=C(C)CC[C@@H]12 [Compound 14, dehydroleucodin] | 3 µM | 8.1 µM | 7.5 µM | 5.8 µM | 3.3 µM | 2.5 ± 0.4 µM | 20 µM | – | 5.2 µM | 10 µM | 4.3 µM | 23 µM | – | – |
| C=C1C(=O)O[C@@H]2/C=C(\C)CC/C=C(\C)CC[C@@H]12 [Compound 1, costunolide] | 2.2 µM | 6.3 µM | 6.2 µM | 3.7 µM | 5.3 ± 1.4 µM | 2 ± 1 µM | 20 µM | most active in all of the cell lines | 4.2 µM | 4.8 µM | – | – | 2 to 6.2 µM | – |
| C=C1CC[C@H](OC(C)=O)[C@]2(C)CC[C@H]3C(=C)C(=O)O[C@@H]3[C@@H]12 (relative stereo) [Compound 8, (3aS*,5aR*,6S*,9aS*,9bS*)-5a-Methyl-3,9-dimethylidene-2-oxododecahydro-naphtho[1,2-b]furan-6-yl acetate] | – | 7 µM | 6.3 µM | 8.4 µM | 11 ± 1.7 µM | 4.7 ± 1.1 µM | 24 µM | – | – | 12 µM | – | – | – | – |
| C=C1C(=O)O[C@H]2[C@H]1CCC(C)=C1[C@@H](OC(C)=O)[C@H]3O[C@@]3(C)[C@@H]12 [Compound 12, 2β-acetoxy-3α,4α-epoxy-3,4-dihydrokauniolide] | 6 µM | 10.1 µM | 7.1 µM | 6 µM | 7.1 µM | 4.2 ± 1.1 µM | – | – | 7.8 µM | 10.1 µM | 8.3 µM | – | – | – |
| C=C1C(=O)OC2C1CCC1(C)C(=O)C=CC(C)(O)C21 (stereo not drawn) [Compound 11, 11,13-didehydrovulgarin] | 4.8 µM | 13 µM | 10 µM | 3.6 µM | 10.1 µM | 4.2 ± 2.1 µM | 24 µM | – | 7.8 µM | – | 18 µM | 21 µM | – | – |
| C=C1C(=O)OC2C1CCC1(C)C(O)CCC(=C)C21 (stereo not drawn) [Compound 7, 1-epi-reynosin] | 12 µM | 14 µM | 12 µM | 9 µM | 23 µM | 7.6 µM | 22 µM | – | 18.5 µM | 10.1 µM | 30 µM | – | – | 6.4 µM |
| COC(=O)C(N)CSCC1C(=O)OC2C1CCC1(C)C(O)CC=C(C)C21 (stereo not drawn) [Compound 21] | 100 µM | – | > 100 µM | 73 µM | > 100 µM | 51 µM | 41 µM | significantly less potent; also recorded: inactive or considerably less potent | – | – | – | – | – | 40 µM |
| C=C(C(=O)OC)C1CCC2(C)C(O)CCC(=C)C2C1O (stereo not drawn) [Compound 16, baynol C] | 24 µM | 23 µM | 13 µM | 16 µM | 27.4 ± 17.2 µM | 9.9 ± 3 µM | 29 µM | lowest activity | – | – | – | – | – | – |
| C=C1C(=O)O[C@@H]2[C@H]3C(C)=CC[C@@H](O)[C@]3(C)CC[C@@H]12 [Compound 9, santamarin] | 8.1 ± 1.8 µM | 7.2 µM | 6.9 µM | 12.3 ± 5.5 µM | 9.7 ± 0.9 µM | 3.1 ± 0.6 µM | 17 µM | – | – | – | – | – | – | – |
